Results from PubChem BioAssay (NCI).
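Compound exposure: 48 hours, 5 concentrations, 96-well plates. The concentration for 50% growth inhibition is given as GI50. The concentration for full growth arrest is given as TGI.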

Assays:
Test in all cases: growth of human tumour cells (NCI), 48 h
NCI-H226 lung = tested on: NCI-H226 lung
SF-539 CNS = tested on: SF-539 CNS
MDA-MB-231 breast = tested on: MDA-MB-231 breast
MALME-3M melanoma = tested on: MALME-3M melanoma
NCI-H522 lung = tested on: NCI-H522 lung
NCI-H460 lung = tested on: NCI-H460 lung
NCI-H23 lung = tested on: NCI-H23 lung
SK-OV-3 ovarian = tested on: SK-OV-3 ovarian
UACC-62 melanoma = tested on: UACC-62 melanoma
TK-10 renal = tested on: TK-10 renal

| Compound | GI50 (NCI-H226 lung) | TGI (NCI-H226 lung) | GI50 (SF-539 CNS) | TGI (SF-539 CNS) | GI50 (MDA-MB-231 breast) | TGI (MDA-MB-231 breast) | GI50 (MALME-3M melanoma) | TGI (MALME-3M melanoma) | GI50 (NCI-H522 lung) | TGI (NCI-H522 lung) | GI50 (NCI-H460 lung) | TGI (NCI-H460 lung) | GI50 (NCI-H23 lung) | TGI (NCI-H23 lung) | GI50 (SK-OV-3 ovarian) | TGI (SK-OV-3 ovarian) | GI50 (UACC-62 melanoma) | TGI (UACC-62 melanoma) | GI50 (TK-10 renal) | TGI (TK-10 renal) |
| --- | --- | --- | --- | --- | --- | --- | --- | --- | --- | --- | --- | --- | --- | --- | --- | --- | --- | --- | --- | --- |
| C=C(CN1CCc2ccccc2C1)c1ccc(C(=O)Nc2ccc(N)cc2)cc1 | 58.5 µM | > 100 µM | 19.3 µM | 57.4 µM | 20.5 µM | > 100 µM | 18.3 µM | 61 µM | 3.89 µM | 21 µM | 27.7 µM | > 100 µM | 17.4 µM | > 100 µM | 19.5 µM | 53.7 µM | 22.1 µM | > 100 µM | 26.3 µM | > 100 µM |
| Cc1ccc2c(=O)c3cccc(CC(=O)O)c3oc2c1C | > 100 µM | > 100 µM | > 100 µM | > 100 µM | > 100 µM | > 100 µM | > 100 µM | > 100 µM | > 100 µM | > 100 µM | > 100 µM | > 100 µM | > 100 µM | > 100 µM | > 100 µM | > 100 µM | > 100 µM | > 100 µM | > 100 µM | > 100 µM |
| S=C(Nc1ccc(Cl)cc1)Nc1ccc(-c2nc3ccccc3[nH]2)cc1 | 10 µM | > 46.6 µM | 5.27 µM | 13.5 µM | 3.14 µM | 12.8 µM | 7.19 µM | 32.1 µM | 4.63 µM | 13.3 µM | 9.28 µM | > 43.4 µM | 3.89 µM | 17.5 µM | 17.7 µM | > 100 µM | 5.15 µM | 14.8 µM | 7.73 µM | 36.1 µM |
| CC(C)(O)C1OCC(C2CCC3(C)C4=CCC5C(C)(C)C(O)CCC5(C)C4CCC23C)CC1O (stereo not drawn) |  | 27.9 µM |  | 26.4 µM |  | 28.6 µM |  | 39.5 µM |  | 23.6 µM |  | 26.1 µM |  | 81.3 µM |  | 31.5 µM |  | 29.5 µM |  | 25.9 µM |
| Cc1ccc2c(N)c(C(=O)N[C@H]3CCc4cc(N5CC6CCC(C5)N6)ccc4C3)sc2n1 | 0.452 µM | 2.58 µM | 0.531 µM | 2.21 µM | 0.606 µM | 2.71 µM | 0.441 µM | 2.04 µM | 0.265 µM | 1.59 µM | 0.152 µM | 1.43 µM | 1.24 µM | 5.31 µM | 0.422 µM | 2.99 µM | 0.709 µM | 3.11 µM | 0.434 µM | 3.26 µM |
| O=C1C(=O)c2ccccc2C(O)=C1C(CCc1ccccc1)C1=C(O)c2ccccc2C(=O)C1=O |  | > 100 µM |  | > 100 µM |  | > 100 µM |  | 29.7 µM |  | > 100 µM |  | > 100 µM |  | > 100 µM |  | > 100 µM |  | 34.5 µM |  | > 100 µM |
| O=C1C=Cc2ccccc2/C1=C/c1[nH]c(=O)[nH]c1O | 9.59 µM | > 100 µM | 3.38 µM | 16.8 µM | 13.2 µM | 84.3 µM | 4.19 µM | 88.2 µM | 1.3 µM | 3.89 µM | 9.71 µM | 30.9 µM | 8.19 µM | > 100 µM | 3.66 µM | 23.2 µM | 3.45 µM | > 100 µM | 10.5 µM | 85.4 µM |
| COc1nc(C)cc2c(=O)n(-c3ccccc3)n(CCCN3CCN(c4ccc(Cl)cc4)CC3)c(=O)c12 | > 50 µM | > 50 µM | > 50 µM | > 50 µM | 39.5 µM | > 50 µM | > 50 µM | > 50 µM | 28.6 µM | > 50 µM | 24.6 µM | > 50 µM | > 50 µM | > 50 µM | 32.8 µM | > 50 µM | 39.9 µM | > 50 µM | > 50 µM | > 50 µM |
| O=C(C(Br)Br)C(Br)C(Br)c1ccccc1 (stereo not drawn) | 3.31 µM | 15.4 µM | 2.43 µM | 7.84 µM | 5.4 µM | 20.6 µM | 3.11 µM | 8.65 µM | 1.81 µM | 3.48 µM | 24.5 µM | 66.4 µM | 5.16 µM | 27.5 µM | 17.2 µM | 31.1 µM | 3.25 µM | 11.5 µM | 2.47 µM | 4.78 µM |
| Nc1ccccc1C#C/C=C\C#Cc1ccc(Cl)cc1Cl | 19.2 µM | 39.5 µM | 12.3 µM | 28.9 µM | 15.8 µM | 35.6 µM | 1.87 µM | 17.2 µM | 14.7 µM | 35.4 µM | 10.7 µM | 26.5 µM | 14.2 µM | 31.5 µM | 27.8 µM | 80.5 µM | 14.5 µM | 31.7 µM | 11.6 µM | 26.8 µM |
| O=C1c2ccccc2-c2c1c1ccccc1c(=O)n2CCCN1CCOCC1 | 26.4 µM | 84.5 µM | 6.65 µM | 19.6 µM | 12 µM | 34.1 µM | 9.43 µM | 45.1 µM | 10.1 µM | > 63.3 µM | 20 µM | > 100 µM | 15.4 µM | 41.5 µM | 17.7 µM | 45 µM | 5.83 µM | 21 µM | 12.1 µM | 31.9 µM |
| COc1c(O)ccc2c1CN1CCc3cc4c(cc3C1C2)OCO4 (stereo not drawn) |  | > 100 µM |  | > 100 µM |  | > 100 µM |  | > 100 µM |  | 36.1 µM |  | > 74.7 µM |  | > 100 µM |  | > 100 µM |  | > 100 µM |  | > 79.6 µM |
| C/C=C(\C)C(=O)O[C@H]1C=CC(=O)O[C@H]1CNC(=O)[C@H](C)O | 17.9 µM | 46.7 µM | 19.4 µM | 35.4 µM | 19.1 µM | 36.3 µM | 18.5 µM | 35.1 µM | 11.6 µM | 31 µM | 28.2 µM | 94.2 µM | 22.1 µM | 47.8 µM | 52.1 µM | > 100 µM | 16.1 µM | 30.5 µM | 17.2 µM | 31.8 µM |
| S=C(N/N=C/c1ccccn1)Nc1ccccn1 | 2.08 µM | 11.8 µM | 1.81 µM | 9.02 µM | 0.642 µM | > 100 µM | 1.81 µM | > 100 µM | 0.241 µM | 0.842 µM | 0.962 µM | 12.6 µM | 3.23 µM | > 100 µM | 2.29 µM | > 100 µM |  |  | 2.93 µM | > 100 µM |
